Drawing on PMC8286840, “Identifying SARS-CoV-2 antiviral compounds by screening for small molecule inhibitors of Nsp3 papain-like protease” (Biochemical Journal, 2021), this text covers remaining activity for 28 molecules.

Structures can show the parent of a compound that is named as a salt. Where two headings read alike, the source gives them in different places.

The target of assay [1] is T1, SARS-CoV-2 PLpro (nsp3 1564–1878) (Severe acute respiratory syndrome coronavirus 2, UniProt P0DTD1). Kind of assay: biochemical. On the set-up: FRET-quenched peptide (Pro3) cleavage by PLpro, 10 min pre-incubation, slope over 20 min, normalised to no-compound control. The conditions noted are these: low concentration screen, read-out: % of control remaining.
For assay [2], the target named is T1, SARS-CoV-2 PLpro (nsp3 1564–1878). Description: biochemical. On the set-up: FRET-quenched peptide (Pro3) cleavage by PLpro, 10 min pre-incubation, slope over 20 min, normalised to no-compound control. The conditions noted are these: high concentration screen, read-out: % of control remaining.

In the case of `O=C(Nc1ccc(O)cc1)c1ccccc1O` [Osalmid], the remaining activity at 1.25 µM in assay [1] (Well no.=8152) was found to be 100%. Further, the remaining activity at 3.75 µM in assay [2] (Well no.=8152) came to 100%.

For `O=S(=O)(NC1CCCCC1)c1ccc2c(c1)C(=NO)c1cc(S(=O)(=O)NC3CCCCC3)ccc1-2` [FIN56], the remaining activity at 1.25 µM was 99.6% in assay [1] (Well no.=6740) and 93.4% in assay [1] (Well no.=8726). Also, the remaining activity at 3.75 µM was found to be 97.8% in assay [2] (Well no.=6740) and 94.6% in assay [2] (Well no.=8726).

Regarding `CCCN(CCC)[C@@H]1CCc2ccc(O)cc2C1` [R-(+)-7-Hydroxy-DPAT hydrobromide], the remaining activity at 1.25 µM in assay [1] (Well no.=428) is 97.2%. Besides, the remaining activity at 3.75 µM in assay [2] (Well no.=428) was 96.9%.

In the case of `COC(=O)[C@H](CC(C)C)NC(=O)c1ccc(NC[C@@H](N)CS)cc1-c1cccc2ccccc12` [GGTI298 Trifluoroacetate], the remaining activity at 1.25 µM in assay [1] (Well no.=8456) is 97.5%. Moreover, in assay [2] (Well no.=8456), the remaining activity at 3.75 µM amounted to 86.9%.

As for `COc1cccc2c1cc([N+](=O)[O-])c1c(C(=O)O)cc3c(c12)OCO3` [Aristolochic acid A], the remaining activity at 1.25 µM in assay [1] (Well no.=3081) came out at 106%. Besides, the remaining activity at 3.75 µM in assay [2] (Well no.=3081) was 103%.

With `C[N+]1(C)CCCC(OC(=O)C(O)(c2ccccc2)c2ccccc2)C1` (stereo not shown) [Mepenzolate (Bromide)], the remaining activity at 1.25 µM in assay [1] (Well no.=7911) was determined as 102%. The remaining activity at 3.75 µM in assay [2] (Well no.=7911) amounted to 100%.

On to `Cc1ccccc1C(C(=O)NC1CCCCC1)N(C(=O)Cn1ccnc1C)c1cccc(F)c1` (stereo not shown) [N-cyclohexyl-2-(N-(3-fluorophenyl)-2-(2-methyl-1H-imidazol-1-yl)acetamido)-2-(o-tolyl)acetamide], for which, in assay [1] (Well no.=5600), the remaining activity at 1.25 µM was found to be 93.6%. The remaining activity at 3.75 µM in assay [2] (Well no.=5600) was 95.4%.

With `COc1cc([C@H]2Oc3cc([C@H]4Oc5cc(O)cc(O)c5C(=O)[C@@H]4O)ccc3O[C@@H]2CO)ccc1O` [Silybine], the remaining activity at 1.25 µM in assay [1] (Well no.=3753) was determined as 101%. In addition, the remaining activity at 3.75 µM in assay [2] (Well no.=3753) is 104%.

Consider `CCCCCCCCCCCCCCCCCC(=O)NCC(COP(=O)([O-])OCC[N+](C)(C)C)OCC` (racemic) [rac-2-Ethoxy-3-octadecanamido-1-propylphosphocholine], for which the remaining activity at 1.25 µM in assay [1] (Well no.=413) was 102%. Further, in assay [2] (Well no.=413), the remaining activity at 3.75 µM turned out to be 101%.

For the molecule `COc1cc2nc(N3CCN(C(=O)c4ccco4)CC3)nc(N)c2cc1OC` [Prazosin.HCl], the remaining activity at 1.25 µM in assay [1] (Well no.=1689) amounted to 103%. The remaining activity at 3.75 µM in assay [2] (Well no.=1689) stood at 100%.

For the molecule `O=C1CCCN1CC#CCN1CCCC1` [Oxotremorine], in assay [1] (Well no.=1673), the remaining activity at 1.25 µM stood at 104%. The remaining activity at 3.75 µM in assay [2] (Well no.=1673) was 102%.

With `Cc1nnc(C(C)C)n1[C@@H]1C[C@H]2CC[C@@H](C1)N2CC[C@H](NC(=O)C1CCC(F)(F)CC1)c1ccccc1` [Maraviroc], the remaining activity at 1.25 µM in assay [1] (Well no.=4678) is 103%; in assay [1] (Well no.=8691), 101%. The figures for the remaining activity at 3.75 µM in assay [2] (Well no.=4678) and in assay [2] (Well no.=8691) were 100% and 102%, respectively.

As to `O=C(Nc1ccc(S(=O)(=O)Nc2nccs2)cc1)C(c1ccccc1)c1ccccc1` [2,2-diphenyl-N-{4-[(1,3-thiazol-2-ylamino)sulfonyl]phenyl}acetamide], the remaining activity at 1.25 µM in assay [1] (Well no.=5558) came to 92.9%. The remaining activity at 3.75 µM in assay [2] (Well no.=5558) is 96.4%.

As for `CCCCC/C=C\C/C=C\C/C=C\C/C=C\CCCC(N)=O` [Arachidonamide], the remaining activity at 1.25 µM in assay [1] (Well no.=4336) is 108%. The remaining activity at 3.75 µM in assay [2] (Well no.=4336) was 104%.

For `Cc1ccc(C(=O)Nc2ccc(S(=O)(=O)O)c3cc(S(=O)(=O)O)cc(S(=O)(=O)O)c23)cc1NC(=O)c1cccc(NC(=O)Nc2cccc(C(=O)Nc3cc(C(=O)Nc4ccc(S(=O)(=O)O)c5cc(S(=O)(=O)O)cc(S(=O)(=O)O)c45)ccc3C)c2)c1` [Suramin (sodium salt)], in assay [1] (Well no.=8141), the remaining activity at 1.25 µM stood at 105%. In addition, in assay [2] (Well no.=8141), the remaining activity at 3.75 µM was found to be 98.9%.

Consider `CC(=O)OCC1=C(C(=O)O)N2C(=O)[C@@H](NC(=O)CSc3ccncc3)[C@H]2SC1` [Cephapirin sodium], for which the remaining activity at 1.25 µM in assay [1] (Well no.=188) came to 101%. Besides, in assay [2] (Well no.=188), the remaining activity at 3.75 µM was 99.7%.

In the case of `COc1ccccc1N1CCN(CCN(C(=O)C2CCCCC2)c2ccccn2)CC1` [WAY-100635 maleate], the remaining activity at 1.25 µM in assay [1] (Well no.=1292) turned out to be 107%. Also, in assay [2] (Well no.=1292), the remaining activity at 3.75 µM amounted to 107%.

As for `C[N+](C)(C)CCOC(=O)CCC(=O)OCC[N+](C)(C)C` [Succinylcholine chloride], the results for the remaining activity at 1.25 µM in assay [1] (Well no.=1318) and in assay [1] (Well no.=6064) were 103% and 99%, respectively. Further, the remaining activity at 3.75 µM in assay [2] (Well no.=1318) stood at 103%; in assay [2] (Well no.=6064) it was 96.6%.

As to `CC(C)Cc1ccc(C(C)C(=O)NO)cc1` (stereo not shown) [Ibuproxam], the remaining activity at 1.25 µM in assay [1] (Well no.=4091) turned out to be 95%. Also, the remaining activity at 3.75 µM in assay [2] (Well no.=4091) was determined as 94.9%.

Take `O=c1cc[nH]c(=S)[nH]1` [2-Thiouracil]: in assay [1] (Well no.=5325), the remaining activity at 1.25 µM came out at 90.5%. Further, the remaining activity at 3.75 µM in assay [2] (Well no.=5325) worked out at 90.8%.

As to `O=C(NCCO)c1cc(C(=O)NCCO)cc(C(=O)NCCO)c1` [N~1~,N~3~,N~5~-tris(2-hydroxyethyl)-1,3,5-benzenetricarboxamide], in assay [1] (Well no.=6029), the remaining activity at 1.25 µM was 96.8%. Besides, in assay [2] (Well no.=6029), the remaining activity at 3.75 µM is 99.9%.

`CC(C(=O)Nc1cc(C#N)ccc1CCCC(=O)O)c1ccc(F)c2ccccc12` (stereo not shown) [ONO-AE3-208]: the remaining activity at 1.25 µM in assay [1] (Well no.=7279) was 98.9%. Besides, in assay [2] (Well no.=7279), the remaining activity at 3.75 µM was 94.1%.

For the molecule `COc1ccc(CNCc2cccc3ccccc23)cc1` [ML133 HCl], in assay [1] (Well no.=4793), the remaining activity at 1.25 µM turned out to be 97.9%. In addition, the remaining activity at 3.75 µM in assay [2] (Well no.=4793) worked out at 96.1%.

Consider `CCN(c1nc(N)c(C(=O)NC(=N)N)nc1Cl)C(C)C` [5-(N-Ethyl-N-isopropyl)amiloride], for which, in assay [1] (Well no.=203), the remaining activity at 1.25 µM was 99.7%. In assay [2] (Well no.=203), the remaining activity at 3.75 µM came out at 97.3%.

Take `CC(=O)OCC1=C(C(=O)O)N2C(=O)[C@@H](NC(=O)Cc3cccs3)[C@H]2SC1` [Cephalothin sodium]: the remaining activity at 1.25 µM in assay [1] (Well no.=224) stood at 93.6%. For the same molecule, the remaining activity at 3.75 µM in assay [2] (Well no.=224) was found to be 96.4%.

As to `Cc1c(O)cccc1C(=O)N[C@@H](CSc1ccccc1)[C@H](O)CN1C[C@H]2CCCC[C@H]2C[C@H]1C(=O)NC(C)(C)C` [Nelfinavir mesylate], the remaining activity at 1.25 µM in assay [1] (Well no.=2201) was found to be 95.1%; in assay [1] (Well no.=8156), 102%. Besides, the remaining activity at 3.75 µM in assay [2] (Well no.=2201) stood at 97.3%; in assay [2] (Well no.=8156), 103%.

`COc1ccc(/C=C/c2cc(O)cc(O[C@@H]3O[C@H](CO)[C@@H](O)[C@H](O)[C@H]3O)c2)cc1O` [Rhapontin]: the remaining activity at 1.25 µM in assay [1] (Well no.=3300) turned out to be 102%. Also, the remaining activity at 3.75 µM in assay [2] (Well no.=3300) is 101%.

With `NCCCC[C@@H]1NC(=O)[C@@H](Cc2ccccc2)NC(=O)[C@H](CC(=O)O)NC(=O)CNC(=O)[C@H](CCCN=C(N)N)NC1=O` [Cyclo(-RGDfK)], the remaining activity at 1.25 µM in assay [1] (Well no.=8410) worked out at 96.3%. In addition, the remaining activity at 3.75 µM in assay [2] (Well no.=8410) was found to be 96.9%.
